Several values for one entry are separate records, joined by “and”; a condition that tells them apart may be missing. Equal values may be shown once. Entries after “also recorded” stand apart in the source; their conditions may differ.
Assays:
hSK3 = hSK3 (Homo sapiens, UniProt Q9UGI6); assay: Automated patch clamp (QPatch 16), whole cell, stable HEK293 cell line expressing hSK3; assay type: cell-based; details: HEK stable line, 400 nM free intracellular calcium, mean ± SEM, n = 9
Method: (§1) Three different stable HEK293 cell lines expressing hSK1, hSK2 or hSK3 (NeuroSearch A/S, Ballerup, Denmark) and a CHO stable cell line expressing hERG (University of Copenhagen, Copenhagen, Denmark) were used for automated patch clamp. These cells were cultivated and prepared as previously described (Skarsfeldt et al., [2016]).
(§2) Automated patch clamp (QPatch 16, Sophion, Denmark) on SK-expressing HEK293 cell lines was conducted as previously described (Simó-Vicens et al., [2017b]). Briefly, SK currents were elicited by voltage-ramps starting at −80 mV and finishing at +80 mV from a holding potential of 0 mV. Extracellular solution contained 0.1 mM CaCl2, 3 mM MgCl2, 154 mM KCl, 10 mM HEPES and 10 mM glucose with pH 7.4. Intracellular solution for SK experiments contained 8.106 mM CaCl2 (final free calcium concentration of 400 nM), 1.167 mM MgCl2, 10 mM EGTA, 154 mM KCl, 10 mM HEPES, 31.25/ 10 mM KOH/EGTA and 15 mM KOH with pH 7.2. Automated patch clamp on hERG-expressing CHO cell line was performed also as previously described (Skarsfeldt et al., [2016]).
(§3) Individual IC50 values were calculated for each cell with the built-in nonlinear fit log(inhibitor) vs. normalized response equation:
(§4) Where Y is the normalized response, from 100, corresponding to current recorded during saline perfusion, down to 0, corresponding to currents recorded in the presence of bicuculline methiodide 100 μM. […]

[1] = test system: all three SK channel subtypes; assay: Automated patch clamp, summary over all three SK channel subtypes; assay type: cell-based, human; details: summary value, read-out: IC50 on all three SK channel subtypes (similar potency)
Method: as §1, §2
as §4, with “μM. X is the log of the BBP concentration. A standard Hill Slope of −1 was considered for this purpose.” for “μM.”

hIK = biological target: T1, hIK (Homo sapiens, UniProt O15554); assay: Manual whole cell patch clamp, HEK293 transiently transfected with hIK; assay type: cell-based; details: BBP 1 μM, n = 6
T1 construct: expressed in transfected cells; host or cells: HEK293 (transient, co-transfected with eGFP)
Method: HEK293 cells were transiently co-transfected with the plasmid of interest (hBK, hSK1, hSK2, hSK3 WT, rSK3 H491N, or hIK) and eGFP using standard Lipofectamine™ 2000 (Thermo Fisher Scientific, Waltham, Massachussets, USA) transfection protocols. After transfection, cells were incubated overnight before the experiments.
Manual patch clamp experiments were performed at room temperature in the whole cell configuration with a HEKA EPC9 amplifier and the Patchmaster software (HEKA Elektronik, Ludwigshafen, Germany). All currents were elicited every 2 s using an incremental 200 ms voltage-ramp protocol starting at −80 mV and finishing at +80 mV from a holding potential of 0 mV. Borosilicate glass pipettes were pulled with a horizontal puller (DMZ Universal Puller, Zeitz Instruments, Martinsried, Germany) with resistances 2.5–3 MΩ. Currents were measured using the same solutions as the ones used for automated patch clamp, with symmetrical potassium concentrations and a free intracellular calcium concentration of 400 nM. […] On the day of the experiment, cells were rinsed with magnesium-free PBS and detached with Detachin™ (Amsbio, Abingdon, United Kingdom) before being plated on 0.5 mm diameter coverslips. Only fluorescent cells were considered for patch clamp experiments.
To do so, we transiently transfected HEK293 WT cells with a plasmid containing one of the human SK channel subtypes, the big conductance calcium and voltage-activated potassium (BK) channel or the intermediate conductance calcium-activated potassium (IK) channel. […] Finally, a positive control was used to inhibit the remaining current and quantify the total effect of BBP. […]

hERG channel = hERG channel (Homo sapiens, UniProt Q12809); assay: Automated patch clamp, stable CHO cell line expressing hERG; assay type: cell-based; details: BBP 10 μM, automated patch clamp, CHO, n = 5
Method: as §1
as §2, with “Automated patch clamp on hERG-expressing CHO cell line was performed also as previously described (Skarsfeldt et al., [2016]).” left out
(§5) To assess the effect of BBP on other calcium-activated potassium channels (hBK, hSK3 WT, rSK3 H491N, and hIK), each individual current was first normalized to its cell size using membrane's capacitance (pA/pF) before statistical analysis. […] Statistical significance between saline and the effect of both BBP and the corresponding reference compound was determined for each channel using one-way ANOVA analysis. […]

[2] = biological target: hERG channel (against SK channel subtypes hSK1, hSK2, hSK3) (Homo sapiens, UniProt Q12809); assay: as above; assay type: cell-based; details: human, CHO cells stably expressing hERG
Method: as §1
as §2, with “Automated patch clamp on hERG-expressing CHO cell line was performed also as previously described (Skarsfeldt et al., [2016]).” left out
as §5

hSK1 = hSK1 (Homo sapiens, UniProt Q92952); assay: Automated patch clamp (QPatch 16), whole cell, stable HEK293 cell line expressing hSK1; assay type: cell-based; details: HEK stable line, 400 nM free intracellular calcium, mean ± SEM, n = 9
Method: as §1, §2, §3, §4

Chain of hERG channel (Q12809 whole entry): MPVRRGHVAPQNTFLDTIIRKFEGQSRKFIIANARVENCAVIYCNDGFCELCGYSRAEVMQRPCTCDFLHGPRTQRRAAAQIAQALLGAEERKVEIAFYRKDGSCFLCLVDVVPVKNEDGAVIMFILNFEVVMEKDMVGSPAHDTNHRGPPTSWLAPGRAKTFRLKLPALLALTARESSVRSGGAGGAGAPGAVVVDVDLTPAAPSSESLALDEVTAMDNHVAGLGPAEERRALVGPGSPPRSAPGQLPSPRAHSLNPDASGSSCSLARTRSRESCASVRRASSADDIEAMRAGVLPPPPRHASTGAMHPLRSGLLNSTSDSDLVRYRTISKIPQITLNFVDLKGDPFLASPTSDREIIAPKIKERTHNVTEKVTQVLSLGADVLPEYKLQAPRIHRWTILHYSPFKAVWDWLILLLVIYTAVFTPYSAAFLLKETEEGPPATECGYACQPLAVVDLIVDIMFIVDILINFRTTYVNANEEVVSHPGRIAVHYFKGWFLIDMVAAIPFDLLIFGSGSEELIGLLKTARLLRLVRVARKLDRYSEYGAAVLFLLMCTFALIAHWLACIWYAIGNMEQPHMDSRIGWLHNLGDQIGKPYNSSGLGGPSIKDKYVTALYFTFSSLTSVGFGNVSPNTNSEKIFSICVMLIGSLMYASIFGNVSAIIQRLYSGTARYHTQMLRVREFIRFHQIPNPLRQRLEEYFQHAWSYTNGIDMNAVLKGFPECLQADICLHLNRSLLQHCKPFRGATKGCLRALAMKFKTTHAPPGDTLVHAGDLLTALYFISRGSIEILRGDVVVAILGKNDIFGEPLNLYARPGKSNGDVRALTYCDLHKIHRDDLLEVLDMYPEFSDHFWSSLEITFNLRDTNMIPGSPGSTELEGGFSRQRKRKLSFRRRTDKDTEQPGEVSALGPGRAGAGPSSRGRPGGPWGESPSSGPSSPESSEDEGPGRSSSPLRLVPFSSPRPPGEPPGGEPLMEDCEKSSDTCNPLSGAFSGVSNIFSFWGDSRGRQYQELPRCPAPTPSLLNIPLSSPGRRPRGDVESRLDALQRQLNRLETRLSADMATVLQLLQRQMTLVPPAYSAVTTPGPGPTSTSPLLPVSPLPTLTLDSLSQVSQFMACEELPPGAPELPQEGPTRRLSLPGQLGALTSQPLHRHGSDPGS
Chain of hERG channel (against SK channel subtypes hSK1, hSK2, hSK3) (Q12809 whole entry): as above

With `c1cc(-c2nc3ccccc3[nH]2)nc(-c2nc3ccccc3[nH]2)c1` [BBP, 2,6-Bis(2-benzimidazolyl)pyridine] the IC50 (hSK3) was 400 ± 200 nM, the IC50 [1] was 400 nM and ~400 nM and the “Effect on hIK current” value (hIK) was “did not have any effect; also recorded: remained unaffected; also recorded: not affected”. The “Reduction of hERG current” value (hERG channel) was 19 ± 3%, the selectivity ratio [2] was 46 and the IC50 (hSK1) was 700 ± 200 nM.

Reference: article PMC6287599, “2,6-Bis(2-Benzimidazolyl)Pyridine (BBP) Is a Potent and Selective Inhibitor of Small Conductance Calcium-Activated Potassium (SK) Channels” (Frontiers in Pharmacology, 2018)
